Experimental data reported in patent US12528838B2, “Cyclic dominant negative competence stimulating peptide analogs and methods of treating Streptococcus pneumoniae infections” (priority 2019, dated 2026).
Like-named read-outs stand apart in the source and are kept apart here. Bridge positions count the residues as written; N and C are the ends. Square brackets hold non-standard residues; d marks the D form. Peptide text beside a SMILES is read from it. Dab = NCC[C@H](N)C(=O)O; Dap = NC[C@H](N)C(=O)O

Columns and labels:
ComD2 receptor = ComD2 receptor (Streptococcus pneumoniae serotype 4, UniProt A0A0H2US84); assay: cell-based; assay type: cell-based
Chain of ComD2 receptor (A0A0H2US84 entry or part of it): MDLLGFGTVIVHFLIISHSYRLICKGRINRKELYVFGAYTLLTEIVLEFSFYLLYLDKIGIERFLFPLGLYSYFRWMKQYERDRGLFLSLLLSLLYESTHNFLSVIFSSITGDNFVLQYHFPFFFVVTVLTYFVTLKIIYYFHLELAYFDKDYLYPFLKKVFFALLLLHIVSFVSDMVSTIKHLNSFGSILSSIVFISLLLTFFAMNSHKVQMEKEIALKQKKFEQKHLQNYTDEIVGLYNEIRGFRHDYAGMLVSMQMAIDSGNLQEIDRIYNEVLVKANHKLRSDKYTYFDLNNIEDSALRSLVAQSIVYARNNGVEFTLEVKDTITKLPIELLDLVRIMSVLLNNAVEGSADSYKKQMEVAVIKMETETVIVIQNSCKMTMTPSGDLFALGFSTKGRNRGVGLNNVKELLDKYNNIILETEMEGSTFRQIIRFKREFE
From the text: Biological evaluation of cyclic dnCSPs. […] All assays will be performed in triplicates and independently three times. Serial dilutions of dnCSPs will be conducted to determine the EC50 and IC50 values of promising dnCSPs through initial screening. Data from reporter assays will be analyzed using the GraphPad Prism software. The lead dnCSPs will be assessed for their therapeutic potential using multiple in vitro assays, including attenuation of ComX-induction (reporter systems), genetic transformation, allolysis (zymogram assays), and release of PLY (hemolysis & Western blots). Lastly, the pneumococcal competence system regulates biofilm formation, which is important for the pathogenesis of […]. The ability of the dnCSPs to inhibit biofilm formation will be evaluated after 24 hr of growth on 1% BSA coated coverslips placed in flat-bottom polystyrene tissue culture plates by staining with FilmTracer LIVE/DEAD Biofilm viability kit (Invitrogen, L10316), and visualized using a confocal microscope and Z-stacked to construct 3D-images.

ComD1 receptor = ComD1 receptor (Streptococcus pneumoniae serotype 2, UniProt A0A0H2ZM50); assay: cell-based; assay type: cell-based; conditions: for maximal induction of comX compared to CSP1 / potency higher than CSP1-cyc(Orn6D10): ComD1
Chain of ComD1 receptor (A0A0H2ZM50 entry or part of it): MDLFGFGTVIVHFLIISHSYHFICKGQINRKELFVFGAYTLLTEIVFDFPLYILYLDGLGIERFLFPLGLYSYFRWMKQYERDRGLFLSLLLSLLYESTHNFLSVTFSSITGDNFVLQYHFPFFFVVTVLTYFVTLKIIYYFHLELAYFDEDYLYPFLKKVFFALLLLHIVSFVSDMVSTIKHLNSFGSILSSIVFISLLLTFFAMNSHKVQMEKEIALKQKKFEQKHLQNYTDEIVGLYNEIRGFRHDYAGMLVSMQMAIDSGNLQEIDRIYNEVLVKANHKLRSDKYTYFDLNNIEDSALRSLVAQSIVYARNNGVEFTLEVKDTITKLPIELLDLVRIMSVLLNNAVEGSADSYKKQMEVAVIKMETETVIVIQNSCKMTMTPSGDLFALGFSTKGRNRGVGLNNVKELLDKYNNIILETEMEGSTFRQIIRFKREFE
From the text: Biological evaluation of cyclic dnCSPs. The cyclic dnCSPs will be assessed for inhibition of competence induction using the β-gal, lux (FIG. 11) or luc (FIG. 15) reporter systems we have optimized for the analysis of a large number of signal variants in 96-well plates. All assays will be performed in triplicates and independently three times. Serial dilutions of dnCSPs will be conducted to determine the EC50 and IC50 values of promising dnCSPs through initial screening. Data from reporter assays will be analyzed using the GraphPad Prism software. The lead dnCSPs will be assessed for their therapeutic potential using multiple in vitro assays, including attenuation of ComX-induction (reporter systems), genetic transformation, allolysis (zymogram assays), and release of PLY (hemolysis & Western blots). Lastly, the pneumococcal competence system regulates biofilm formation, which is important for the pathogenesis of […]. The ability of the dnCSPs to inhibit biofilm formation will be evaluated after 24 hr of growth on 1% BSA coated coverslips placed in flat-bottom polystyrene tissue culture plates by staining with FilmTracer LIVE/DEAD Biofilm viability kit (Invitrogen, L10316), and visualized using a confocal microscope and Z-stacked to construct 3D-images.

CC[C@H](C)[C@H](NC(=O)[C@H](Cc1ccccc1)NC(=O)[C@@H]1CCC(=O)NCC[C@H](NC(=O)[C@H](CO)NC(=O)[C@H](CC(C)C)NC(=O)[C@H](CCCNC(=N)N)NC(=O)[C@H](CCSC)NC(=O)[C@@H](N)CCC(=O)O)C(=O)N[C@@H](Cc2ccccc2)C(=O)N[C@@H](Cc2ccccc2)C(=O)N[C@@H](CCCNC(=N)N)C(=O)N1)C(=O)N[C@@H](CC(C)C)C(=O)N[C@@H](CCC(N)=O)C(=O)N[C@@H](CCCNC(=N)N)C(=O)N[C@@H](CCCCN)C(=O)N[C@@H](CCCCN)C(=O)O [CSP1-cyc(Dab6E10)] (H-EMRLS[Dab]FFREFILQRKK-OH; lactam 6-10; N-terminus and C-terminus assumed)
EC50 (ComD2 receptor): 31.4 nM | EC50 (ComD1 receptor): 12.2 nM | maximal induction of comX compared to CSP1 (ComD1 receptor): 100% | potency higher than CSP1-cyc(Orn6D10) (ComD1 receptor): 10 fold

CC[C@H](C)[C@H](NC(=O)[C@H](Cc1ccccc1)NC(=O)[C@@H]1CCC(=O)NC[C@H](NC(=O)[C@H](CO)NC(=O)[C@H](CC(C)C)NC(=O)[C@H](CCCNC(=N)N)NC(=O)[C@H](CCSC)NC(=O)[C@@H](N)CCC(=O)O)C(=O)N[C@@H](Cc2ccccc2)C(=O)N[C@@H](Cc2ccccc2)C(=O)N[C@@H](CCCNC(=N)N)C(=O)N1)C(=O)N[C@@H](CC(C)C)C(=O)N[C@@H](CCC(N)=O)C(=O)N[C@@H](CCCNC(=N)N)C(=O)N[C@@H](CCCCN)C(=O)N[C@@H](CCCCN)C(=O)O [CSP1-cyc(Dap6E10)] (H-EMRLS[Dap]FFREFILQRKK-OH; lactam 6-10; N-terminus and C-terminus assumed)
EC50 (ComD2 receptor): 13.1 nM | potency against ComD2 receptor higher than CSP2 (ComD2 receptor): about 4 fold | EC50 (ComD1 receptor): 14.6 nM | maximal induction of comX compared to CSP1 (ComD1 receptor): 100% | potency higher than CSP1-cyc(Orn6D10) (ComD1 receptor): 10 fold

CC[C@H](C)[C@H](NC(=O)[C@H](Cc1ccccc1)NC(=O)[C@@H]1CC(=O)NCCCC[C@H](NC(=O)[C@H](CO)NC(=O)[C@H](CC(C)C)NC(=O)[C@H](CCCNC(=N)N)NC(=O)[C@H](CCSC)NC(=O)[C@@H](N)CCC(=O)O)C(=O)N[C@@H](Cc2ccccc2)C(=O)N[C@@H](Cc2ccccc2)C(=O)N[C@@H](CCCNC(=N)N)C(=O)N1)C(=O)N[C@@H](CC(C)C)C(=O)N[C@@H](CCC(N)=O)C(=O)N[C@@H](CCCNC(=N)N)C(=O)N[C@@H](CCCCN)C(=O)N[C@@H](CCCCN)C(=O)O [CSP1-cyc(K6D10)]
EC50 (ComD2 receptor): > 1000 nM | EC50 (ComD1 receptor): 258 nM | maximal induction of comX compared to CSP1 (ComD1 receptor): 44%

CSP1-E1AK6A (AMRLSAFFRDFILQRKK)
inhibition of ComD receptors (ComD1 receptor): could only strongly inhibit the ComD1 receptor

CC[C@H](C)[C@H](NC(=O)[C@H](Cc1ccccc1)NC(=O)[C@H](CC(=O)O)NC(=O)[C@@H]1CC(=O)NCCCC[C@H](NC(=O)[C@H](CO)NC(=O)[C@H](CC(C)C)NC(=O)[C@H](CCCNC(=N)N)NC(=O)[C@H](CCSC)NC(=O)[C@@H](N)CCC(=O)O)C(=O)N[C@@H](Cc2ccccc2)C(=O)N[C@@H](Cc2ccccc2)C(=O)N1)C(=O)N[C@@H](CC(C)C)C(=O)N[C@@H](CCC(N)=O)C(=O)N[C@@H](CCCNC(=N)N)C(=O)N[C@@H](CCCCN)C(=O)N[C@@H](CCCCN)C(=O)O [CSP1-cyc(K6D9)] (H-EMRLSKFFDDFILQRKK-OH; lactam 6-9; N-terminus and C-terminus assumed)
EC50 (ComD2 receptor): 528 nM | EC50 (ComD1 receptor): > 1000 nM

CC[C@H](C)[C@@H]1NC(=O)[C@H](Cc2ccccc2)NC(=O)[C@@H](NC(=O)[C@H](CCCNC(=N)N)NC(=O)[C@H](Cc2ccccc2)NC(=O)[C@H](Cc2ccccc2)NC(=O)[C@H](CCCCN)NC(=O)[C@H](CO)NC(=O)[C@H](CC(C)C)NC(=O)[C@H](CCCNC(=N)N)NC(=O)[C@H](CCSC)NC(=O)[C@@H](N)CCC(=O)O)CCCCNC(=O)C[C@@H](C(=O)N[C@@H](CCCNC(=N)N)C(=O)N[C@@H](CCCCN)C(=O)N[C@@H](CCCCN)C(=O)O)NC(=O)[C@H](CC(C)C)NC1=O [CSP1-cyc(K10D14)] (H-EMRLSKFFRKFILDRKK-OH; lactam 10-14; N-terminus and C-terminus assumed)
EC50 (ComD1 receptor): 257 nM

CC[C@H](C)[C@H](NC(=O)[C@H](Cc1ccccc1)NC(=O)[C@@H]1CCC(=O)NCCCC[C@H](NC(=O)[C@H](CO)NC(=O)[C@H](CC(C)C)NC(=O)[C@H](CCCNC(=N)N)NC(=O)[C@H](CCSC)NC(=O)[C@@H](N)CCC(=O)O)C(=O)N[C@@H](Cc2ccccc2)C(=O)N[C@@H](Cc2ccccc2)C(=O)N[C@@H](CCCNC(=N)N)C(=O)N1)C(=O)N[C@@H](CC(C)C)C(=O)N[C@@H](CCC(N)=O)C(=O)N[C@@H](CCCNC(=N)N)C(=O)N[C@@H](CCCCN)C(=O)N[C@@H](CCCCN)C(=O)O [CSP1-cyc(K6E10)]
EC50 (ComD2 receptor): > 1000 nM | EC50 (ComD1 receptor): 350 nM

CC[C@H](C)[C@H](NC(=O)[C@H](Cc1ccccc1)NC(=O)[C@@H]1CC(=O)NCCC[C@H](NC(=O)[C@H](CO)NC(=O)[C@H](CC(C)C)NC(=O)[C@H](CCCNC(=N)N)NC(=O)[C@H](CCSC)NC(=O)[C@@H](N)CCC(=O)O)C(=O)N[C@@H](Cc2ccccc2)C(=O)N[C@@H](Cc2ccccc2)C(=O)N[C@@H](CCCNC(=N)N)C(=O)N1)C(=O)N[C@@H](CC(C)C)C(=O)N[C@@H](CCC(N)=O)C(=O)N[C@@H](CCCNC(=N)N)C(=O)N[C@@H](CCCCN)C(=O)N[C@@H](CCCCN)C(=O)O [CSP1-cyc(Orn6D10)]
EC50 (ComD2 receptor): > 1000 nM | EC50 (ComD1 receptor): 193 nM | maximal induction of comX compared to CSP1 (ComD1 receptor): 100%

CC[C@H](C)[C@H](NC(=O)[C@H](Cc1ccccc1)NC(=O)[C@@H]1CCC(=O)NCC[C@H](NC(=O)[C@H](CO)NC(=O)[C@H](CC(C)C)NC(=O)[C@H](CCCNC(=N)N)NC(=O)[C@H](CCSC)NC(=O)[C@H](C)N)C(=O)N[C@@H](Cc2ccccc2)C(=O)N[C@@H](Cc2ccccc2)C(=O)N[C@@H](CCCNC(=N)N)C(=O)N1)C(=O)N[C@@H](CC(C)C)C(=O)N[C@@H](CCC(N)=O)C(=O)N[C@@H](CCCNC(=N)N)C(=O)N[C@@H](CCCCN)C(=O)N[C@@H](CCCCN)C(=O)O [CSP1-E1A-cyc(Dab6E10), A-M-R-L-S-(Dab-F-F-R-E)-F-I-L-Q-R-K-K] (H-AMRLS[Dab]FFREFILQRKK-OH; lactam 6-10; N-terminus and C-terminus assumed)
IC50 (ComD2 receptor): > 1000 nM | IC50 (ComD2 receptor; read-out: ComD2 IC50 (95% CI), Table 2, β-gal reporter, IC50 values in italic font): > 1000 nM | IC50 (ComD1 receptor): 173 nM

CC[C@H](C)[C@@H]1NC(=O)[C@H](Cc2ccccc2)NC(=O)[C@H](CC(=O)O)NC(=O)[C@H](CCCNC(=N)N)NC(=O)[C@H](Cc2ccccc2)NC(=O)[C@H](Cc2ccccc2)NC(=O)[C@@H](NC(=O)[C@H](CO)NC(=O)[C@H](CC(C)C)NC(=O)[C@H](CCCNC(=N)N)NC(=O)[C@H](CCSC)NC(=O)[C@@H](N)CCC(=O)O)CCCCNC(=O)C[C@@H](C(=O)N[C@@H](CCCNC(=N)N)C(=O)N[C@@H](CCCCN)C(=O)N[C@@H](CCCCN)C(=O)O)NC(=O)[C@H](CC(C)C)NC1=O [CSP1-cyc(K6D14)] (H-EMRLSKFFRDFILDRKK-OH; lactam 6-14; N-terminus and C-terminus assumed)
EC50 (ComD2 receptor): > 1000 nM | EC50 (ComD1 receptor): > 1000 nM

CC[C@H](C)[C@H](NC(=O)[C@H](Cc1ccccc1)NC(=O)[C@@H]1CCC(=O)NC[C@H](NC(=O)[C@H](CO)NC(=O)[C@H](CC(C)C)NC(=O)[C@H](CCCNC(=N)N)NC(=O)[C@H](CCSC)NC(=O)[C@H](C)N)C(=O)N[C@@H](Cc2ccccc2)C(=O)N[C@@H](Cc2ccccc2)C(=O)N[C@@H](CCCNC(=N)N)C(=O)N1)C(=O)N[C@@H](CC(C)C)C(=O)N[C@@H](CCC(N)=O)C(=O)N[C@@H](CCCNC(=N)N)C(=O)O [CSP1-E1A-des-K16K17-cyc(Dap6E10), A-M-R-L-S-(Dap-F-F-R-E)-F-I-L-Q-R] (H-AMRLS[Dap]FFREFILQR-OH; lactam 6-10; N-terminus and C-terminus assumed)
IC50 (ComD2 receptor): 67.2 nM | higher inhibition potency against the ComD2 receptor compared to parent CSP1-E1A-cyc(Dap6E10) (ComD2 receptor): 3 fold | IC50 (ComD1 receptor): 7.57 nM | higher inhibition potency against the ComD1 receptor compared to parent CSP1-E1A-cyc(Dap6E10) (ComD1 receptor): ~10 fold
